{"source": "patent US8962322B2", "about": "“Enhancers of induced pluripotent stem cell reprogramming” (City of Hope, priority 2012, dated 2015)", "key": {"[1]": {"tested_on": "Tet1", "assay": "RT-PCR of Tet1 mRNA in treated MEFs", "type": "cell-based, mouse", "details": "versus vehicle", "experimental": "The up-regulation of Tet1 is intriguing, as this is a gene that converts 5-methylcytosine to 5-hydroxymethylcytosine and may be involved in active DNA demethylation.\n(§1) RT-PCR analysis: Total RNA was purified with Trizol reagent (Invitrogen). Reverse transcription was performed with 1 μg of RNA using Omniscript® Reverse Transcription Kit (Qiagen). Quantitative PCR was performed using iTaq SYBR Green Supermix with Rox (Bio-rad) in Applied Biosystem Step one plus real-time PCR system. […]"}, "[2]": {"tested_on": "Sox2", "assay": "RT-PCR of Sox2 mRNA in treated MEFs", "type": "cell-based, mouse", "details": "versus vehicle", "experimental": "(§2) MEFs were treated with vehicle control or OAC 1 to test whether OAC 1 activates endogenous Oct4 and Nanog gene transcription. […] Oct4, Sox2, and Nanog are central to the transcriptional regulatory hierarchy for ESC pluripotency, forming the core transcriptional regulatory circuitry in ESCs (37). […] OAC1 activated Sox2 mRNA expression, along with Oct4 and Nanog (FIG. 61).\nas §1"}, "[3]": {"tested_on": "mouse embryonic fibroblasts (MEFs)", "assay": "iPSC derivation from 4F (OSKM)-transduced MEFs in mouse ESC media", "type": "cell-based", "experimental": "The generation of iPSCs is a gradual process with relatively low efficiency. Since Oct4 is central to the reprogramming process (35, 36, 38), it was hypothesized that compounds that activate Oct4 transcription may facilitate iPSC generation by enhancing reprogramming efficiency. Reprogramming of mouse embryonic fibroblasts (MEFs) was performed with the 4F reprogramming quartet Oct4, Sox2, Klf4, and c-Myc, along with solvent control, OAC1 or its structural analogs OAC2 and OAC3. The same number of starting MEFs and the same viral stocks were used for each treatment. Two days after viral transduction, the 4F-transduced cells were seeded onto feeder cells in mouse ESC culture media, and this day was designated as day 0 (FIG. 2D). Compound treatment started on day 0 and lasted for 7 days. By counting the number of clones with ESC-like morphology at day 18, both OAC1 and its analogs OAC2 and OAC3 enhanced the 4F-induced reprogramming efficiency considerably. The number of colonies with ESC-like morphology (FIG. 2E) increased 2-fold or more in 4F plus OAC (4F+OAC) treatment, compared to the 4F treatment alone (FIG. 2F, Table 3).\niPSC Derivation in Mouse ESC Media: OG2/R26MEFs were seeded onto […] at the density of 4×10^4 cells per well in DMEM medium with 10% FBS, 0.1 mM non-essential amino acids (NEAA), and 0.1 mM L-glutamine, 24 hr before transduction. Freshly concentrated viruses of the four factors, Oct4, Sox2, c-Myc, and Klf4, were added to the cells. Two days after viral infection, the viral-transduced OG2/R26MEFs were split into new 6-well plates with irradiated MEF feeder cells and cultured in mouse ESC culture medium containing 15% ESC qualified FBS, 2 mM L-glutamine, 0.1 mM 2-mercaptoethanol, 0.1 mM NEAA, 1 mM sodium pyruvate and 1000 U/ml of leukemia inhibitory factor (LIF), and this day was defined as day 0. 1 μM of each compound (OAC1, OAC2, and OAC3) was added to the 4F-transduced cells at day 0 and treatment was continued for 1 week. When iPSC colonies emerged, these colonies were picked for expansion on irradiated MEF feeders in mouse ESC medium."}, "[4]": {"tested_on": "endogenous Oct4", "assay": "RT-PCR of endogenous Oct4 mRNA in treated MEFs", "type": "cell-based, mouse", "details": "versus vehicle", "experimental": "as §2, §1"}, "[5]": {"biological_target": "luciferase (Photinus pyralis, UniProt P08659)", "sequence (P08659 whole entry)": "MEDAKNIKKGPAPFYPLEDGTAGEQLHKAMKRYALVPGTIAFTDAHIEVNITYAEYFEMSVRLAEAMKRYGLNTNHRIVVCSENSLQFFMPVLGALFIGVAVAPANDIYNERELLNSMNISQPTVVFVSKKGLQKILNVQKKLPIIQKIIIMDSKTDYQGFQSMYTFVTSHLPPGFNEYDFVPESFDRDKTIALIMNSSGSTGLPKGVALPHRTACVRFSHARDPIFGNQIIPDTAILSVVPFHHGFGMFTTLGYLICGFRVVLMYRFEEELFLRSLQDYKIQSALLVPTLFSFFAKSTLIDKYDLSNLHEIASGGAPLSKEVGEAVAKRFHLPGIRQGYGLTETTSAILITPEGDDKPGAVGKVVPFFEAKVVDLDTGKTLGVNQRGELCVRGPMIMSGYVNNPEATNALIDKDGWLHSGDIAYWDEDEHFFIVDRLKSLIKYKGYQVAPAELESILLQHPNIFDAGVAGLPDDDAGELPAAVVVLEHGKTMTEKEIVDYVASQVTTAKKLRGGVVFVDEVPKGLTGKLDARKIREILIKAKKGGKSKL", "details": "read-out: EC50 of luciferase inhibition; at 40° C., loss of enzymatic activity as measurement; cited from earlier work"}}, "data": [{"smiles": "O=C(Nc1cc2cc[nH]c2cn1)c1ccccc1", "note": "[OAC1, N-(1H-6-azaindol-5-yl)benzamide]", "values": [{"measurement": "Tet1 mRNA expression", "setting": "[1]", "value": "up-regulated"}, {"measurement": "Sox2 mRNA expression", "setting": "[2]", "value": "activated"}, {"measurement": "advance of the appearance of putative iPSC colonies compared to 4F only reprogramming", "setting": "[3]; 4F+OAC", "value": "about three to four"}, {"measurement": "Colony numbers", "setting": "[3]; MEFs in mouse ESC media, OSKM, seeding 3 × 10^4, day 18, 1 μM compound", "value": 130}, {"measurement": "Reprogramming efficiency", "setting": "[3]; MEFs in mouse ESC media, OSKM, seeding 3 × 10^4, day 18, colony numbers divided by seeding cell numbers", "value": 0.43, "unit": "%"}, {"measurement": "endogenous Oct4 mRNA expression", "setting": "[4]", "value": "activated"}, {"measurement": "EC50", "setting": "[5]", "value": 6.37, "unit": "µM"}]}]}
